We go through 15 molecules from patent US12090225B2 (Avalyn Pharma Inc., priority 2018, dated 2024).

As a reminder, the solubility is how much of the substance goes into solution per volume. Read a low solubility as little dissolved substance. In general, Cmax refers to the maximum level reached in the sampled fluid or tissue. By half-life is commonly meant the time in which the quantity being followed falls by half. By AUC(0-t) is commonly meant exposure summed from dosing to a finite time, without extrapolation to infinity.

The nature of series [1]: Apparent solubility of nintedanib HBr laboratory scale batches. The class given is physicochemical. The text has this: During this process, a new polymorphic form was identified (pattern X)
Series [2] is described as follows: Human inhaled dose projection vs Ofev 150 mg oral. As to conditions: 0.42 mg inhaled vs Ofev 150 mg oral.
Series [3] is described as follows: pH-solubility of nintedanib HBr Pattern 4 and Pattern X. The class given is physicochemical. The note with it: distilled water, over 48 hours, UV/vis 390 nm, unit assumed. The method, then:
The solubility of Pattern 4 and Pattern X at various pH values were determined by UV/vis spectrophotometry. Excess Pattern 4 and Pattern X HBr salts were added to distilled water, vortexed at high speed and the pH was adjusted to the target value by adding 1N HCl or 1N NaOH. The test solutions were mixed on a magnetic stirrer for over 48 hours, then filtered through a 0.22 μm nylon membrane syringe filter and analyzed by uv/vis spectrophotometry at 390 nm. […] The solubility of both polymorphic forms decreases with increasing pH. Both polymorphic forms have similar solubility profile.

Series [4] is described as follows: Temperature-solubility of nintedanib HBr Pattern 4 and Pattern X. The class given is physicochemical. As to conditions: distilled water, over 48 hours. The procedure:
During this time period, the samples were periodically taken out of the storage, vortexed, and returned to storage condition. At the end of the incubation period, the test solutions were filtered through a 0.22 μm nylon membrane syringe filter and analyzed by uv/vis spectrophotometry (at 390 nm) for drug concentration. Table 29 summarizes the solubility of both salt forms as a function of temperature. The solubility of both polymorphic forms increases with increasing temperature. Both polymorphic forms have similar solubility profiles.

The nature of series [5]: Dynamic Vapour Sorption (DVS) hygroscopicity. The class given is physicochemical. The note with it: for DVS mass uptake at 90% RH: 25° C., uptake from input material; for Hygroscopicity: DVS. The procedure:
Dynamic Vapour Sorption (DVS). Approximately, 10 mg of sample was placed into a mesh vapour sorption balance pan and loaded into a DVS-1 or DVS Advantage dynamic vapour sorption balance by Surface Measurement Systems. The sample was subjected to a ramping profile from 40-90% relative humidity (RH) at 10% increments, maintaining the sample at each step until a stable weight had been achieved (dm/dt 0.004%, minimum step length 30 minutes, maximum step length 500 minutes) at 25° C. After completion of the sorption cycle, the sample was dried using the same procedure to 0% RH and then a second sorption cycle back to 40% RH. Two cycles were performed. The weight change during the sorption/desorption cycles were plotted, allowing for the hygroscopic nature of the sample to be determined. XRPD analysis was then carried out on any solid retained.

Series [6] can be described thus: Pattern stability screen of potential salts (40° C./75% RH, XRPD). The class given is physicochemical.
Description: XRPD analysis was carried out on a PANalytical X'pert pro, scanning the samples between 3 and 35° 20. The material was gently compressed and loaded onto a multi-well plate with Kapton or Mylar polymer film to support the sample.
Primary Salt Screening. […] The solvent systems shown in Table were selected for salt screening. For sulfonic acids MEK was used instead of methanol and acetone:water 50:50 (v/v) was used instead of IPA:water to avoid any potential genotoxic impurities. Ca. […] If the acid was insoluble in the selected solvent, a slurry was used. If the acid was a liquid it was added to the API slurry from a stock solution in the allocated solvent. The mixtures of API/counterion/solvent were temperature cycled between ambient and 40° C. in 4 hour cycles for ca. 3 days. Any solids present were isolated and allowed to dry at ambient conditions, for ca. 30 minutes prior to analysis by XRPD. Where solutions were obtained they were evaporated to obtain solid material.
Series [7] is described as follows: 7 day stability testing of salts (40° C./75% RH, 80° C., ambient light; HPLC purity, XRPD). The class given is physicochemical. The note with it: for XRPD pattern after 7 day stability testing: listed as phosphate salt. The method, then:
High Performance Liquid Chromatography-Ultraviolet Detection (HPLC-UV): Instrument: Dionex Ultimate 3000; Column: Acquity CSH C18 100 mm×2.1 mm 1.7 μm; Column Temperature: 50° C.; Autosampler Temperature: Ambient; UV wavelength: 210 nm; Injection Volume: 4 μL; Flow Rate: 0.6 mL/min; Mobile Phase A: 0.1% formic acid in water; Mobile Phase B: 0.1% formic acid in acetonitrile. The HPLC method used the gradient in Table 2.
FT-IR appeared to be consistent with the structure. […] The material was physically stable to changes in temperature and humidity when stored for one week.
A new, poorly crystalline pattern was produced when stored at 40° C./75% RH—Pattern 4.
Purity of these materials remained unchanged (as shown in Table) apart from the sample stored at ambient light, where a 0.5% drop in purity was observed.

Series [8] can be described thus: Disproportionation/hydration studies (pH, XRPD pattern). The class given is physicochemical. The text has this:
No XRPD data could be compiled on the hydration or disproportionation of the salt due to the high solubility in water and acetone/water mixtures.
The salt only remained Pattern 1 at 0.3 aw. New patterns 6 and 7 are likely hydrated due to the high water activity conditions for production.

The nature of series [9]: Aqueous solubility assessment of salts. The class given is physicochemical. The note with it: salt in water.
The nature of series [10]: Inhaled pharmacokinetics of fixed combination nintedanib esylate and pirfenidone. The class given is in vivo, C57BL/6 mice. The note with it: 10.0 mg/kg each IT; for half-life: read-out: Elimination half-life (alpha-phase). The method, then:
Plasma and lung tissue samples were taken 2, 5, 10, 20, 40 min and 1, 2, and 4 hours post dose. Nintedanib was extracted and quantitated as μg/mL plasma and μg/gram lung tissue.

[11] abbreviates: Water Activity 0.3 (acetone/water).
Setting [12] is: Water Activity 0.6 (acetone/water).
[13] abbreviates: Water Activity 0.9 (acetone/water).
Where [14] appears, read: female, C57BL/6, mouse, inhaled or intranasal, Lung (whole lung homogenate).
[15] abbreviates: female, C57BL/6, mouse, inhaled or intranasal, Plasma.

Like-named read-outs stand apart in the source and are kept apart here.

Regarding `Br.COC(=O)c1ccc2c(c1)NC(=O)C2=C(Nc1ccc(N(C)C(=O)CN2CCN(C)CC2)cc1)c1ccccc1` [AP018], the “Apparent Solubility” value in [1] was determined as 2040 µg/mL.

As for `Br.COC(=O)c1ccc2c(c1)NC(=O)C2=C(Nc1ccc(N(C)C(=O)CN2CCN(C)CC2)cc1)c1ccccc1` [AP036], the “Apparent Solubility” value in series [1] worked out at 970 µg/mL.

For the molecule `Br.COC(=O)c1ccc2c(c1)NC(=O)C2=C(Nc1ccc(N(C)C(=O)CN2CCN(C)CC2)cc1)c1ccccc1` [AP064], the “Apparent Solubility” value in series [1] was determined as 1960 µg/mL.

For `Br.COC(=O)c1ccc2c(c1)NC(=O)C2=C(Nc1ccc(N(C)C(=O)CN2CCN(C)CC2)cc1)c1ccccc1` [AP069], the “Apparent Solubility” value in series [1] was 1020 µg/mL.

Regarding `Br.COC(=O)c1ccc2c(c1)NC(=O)/C2=C(\Nc1ccc(N(C)C(=O)CN2CCN(C)CC2)cc1)c1ccccc1` [AP143], the “Apparent Solubility” value in series [1] came to 960 µg/mL.

Take `Br.COC(=O)c1ccc2c(c1)NC(=O)C2=C(Nc1ccc(N(C)C(=O)CN2CCN(C)CC2)cc1)c1ccccc1` [AP152]: in [1], the “Apparent Solubility” value turned out to be 1950 µg/mL.

Turning to `Br.COC(=O)c1ccc2c(c1)NC(=O)C2=C(Nc1ccc(N(C)C(=O)CN2CCN(C)CC2)cc1)c1ccccc1` [AP177d], the “Apparent Solubility” value in series [1] was determined as 2050 µg/mL.

As for `Br.COC(=O)c1ccc2c(c1)NC(=O)C2=C(Nc1ccc(N(C)C(=O)CN2CCN(C)CC2)cc1)c1ccccc1` [AP177w], in series [1], the “Apparent Solubility” value worked out at 1030 µg/mL.

Consider `Br.COC(=O)c1ccc2c(c1)NC(=O)C2=C(Nc1ccc(N(C)C(=O)CN2CCN(C)CC2)cc1)c1ccccc1` [AP178d], for which the “Apparent Solubility” value in series [1] was 1940 µg/mL.

For the molecule `Br.COC(=O)c1ccc2c(c1)NC(=O)C2=C(Nc1ccc(N(C)C(=O)CN2CCN(C)CC2)cc1)c1ccccc1` [AP178w], in series [1], the “Apparent Solubility” value is 1010 µg/mL.

As to `COC(=O)c1ccc2c(c1)NC(=O)/C2=C(\Nc1ccc(N(C)C(=O)CN2CCN(C)CC2)cc1)c1ccccc1` [Inhaled nintedanib], in series [2] (lung), the “% Pharmacokinetics (inhaled compared to oral), AUC” value turned out to be 1047% and the “% Pharmacokinetics (inhaled compared to oral), Cmax” value is given as 2600%. Besides, in series [2] (plasma), the “% Pharmacokinetics (inhaled compared to oral), AUC” value is on record as 100% and the “% Pharmacokinetics (inhaled compared to oral), Cmax” value came out at 83%.

`Br.COC(=O)c1ccc2c(c1)NC(=O)/C2=C(\Nc1ccc(N(C)C(=O)CN2CCN(C)CC2)cc1)c1ccccc1` [Nintedanib HBr Pattern 4, Nintedanib hydrobromide, XRPD Pattern 4]: the solubility turned out to be 2010 µg/mL in series [3] (pH 3.1), 1470 µg/mL in [3] (pH 3.9), 1380 µg/mL in series [3] (pH 4.7) and 1070 µg/mL in series [3] (pH 5.3). For the same molecule, the “Nintedanib HBr Solubility” value in series [4] (5° C.) turned out to be 790 µg/mL; in series [4] (22° C.) it was 1380 µg/mL; in [4] (40° C.), 3200 µg/mL.

For `Br.COC(=O)c1ccc2c(c1)NC(=O)/C2=C(\Nc1ccc(N(C)C(=O)CN2CCN(C)CC2)cc1)c1ccccc1` [Nintedanib HBr Pattern X, Nintedanib hydrobromide, XRPD Pattern X], the solubility worked out at 1860 µg/mL in series [3] (pH 3.1), 1720 µg/mL in series [3] (pH 3.9), 1490 µg/mL in [3] (pH 4.4) and 1400 µg/mL in series [3] (pH 5.1). In addition, the entries for the “Nintedanib HBr Solubility” value in series [4] (5° C.), in series [4] (22° C.) and in series [4] (40° C.) were 650 µg/mL, 1490 µg/mL and 3410 µg/mL, respectively.

For the molecule `COC(=O)c1ccc2c(c1)NC(=O)/C2=C(\Nc1ccc(N(C)C(=O)CN2CCN(C)CC2)cc1)c1ccccc1.O=P(O)(O)O.O=P(O)(O)O` [Phosphate], the “DVS mass uptake at 90% RH” value was “further 10.6% uptake up” in [5] and “ca. 10.6%” in [5] (listed as phosphate salt). Besides, the Hygroscopicity result in series [5] is “Hygroscopic”; in [5] (listed as phosphate salt), “hygroscopic”. In addition, the “XRPD pattern after 72 hrs 40° C./75% RH” value in [6] (Initial pattern 1) stood at 1; in series [6] (Initial pattern 2), 2. The “Purity (%)” value stood at 99.8% in series [7] (40° C./75% RH, 7 day stability testing); 99.2% in series [7] (80° C., 7 day stability testing); 99.6% in series [7] (Ambient, 7 day stability testing); 99.9% in [7] (Input). Further, the “XRPD pattern after 7 day stability testing” value is listed as “Pattern 4” in [7] (40° C./75% RH); “remain Pattern 3” in series [7] (80° C. and ambient conditions/light). The “pH Post-Agitation” value is 2.68 in [8] (setting [11]), 2.52 in series [8] (setting [12]), 2.35 in [8] (setting [13]) and 1.78 in series [8] (Water Activity 1.0 (water)). Also, the “pH Pre-Agitation” value in series [8] (setting [11]) came out at 3.08; in series [8] (setting [12]), 2.60; in series [8] (setting [13]), 2.34; in series [8] (Water Activity 1.0 (water)), 2.75. In addition, the “pH at 6 h” value in [9] (after agitation) worked out at 3.00. For the same molecule, the “pH at 18 h” value in [9] (after agitation) is 2.11. For the same molecule, the “Initial pH” value in series [9] (solubility assessment) turned out to be 3.43.

For the molecule `Cc1ccc(=O)n(-c2ccccc2)c1` [Pirfenidone], in series [10] (Lung (whole lung homogenate)), the “AUC 0-last” value was determined as 5.2 mg·h/kg. In [10] (setting [14]), the Cmax is 279000 ng/g and the half-life worked out at 0.7 min. In series [10] (setting [15]), the AUC(0-t) worked out at 3800 ng·h/mL, the Cmax came out at 7900 ng/mL and the half-life worked out at 8.9 min.
